How the values were obtained:
[1] = Plasma levels of LDA and LD after intravenous LDA-HCl in mice; type: in vivo
Experimental: (§1) The purpose of this experiment was to determine the plasma levels of LDA and LD following intravenous (IV) and oral (PO) administration of LDA-HCl in CD-1 mice.
(§2) CD-1 mice which were prepared for oral administration had to undergo fasting overnight prior to the dosing. The orally treated mice received food only 2 hour post-dosing. The method used to dose orally was oesophagotubage, and the IV mice were injected via a jugular vein under anesthesia (Isoflurane/O2). LDA-HCl solutions were dissolved in citrate buffer and LD/CD solution was prepared according to International Publication No. WO 2010/134074.
(§3) Blood samples were collected following the oral and IV dosing at pre-determined time points and plasma levels of LDA and LD were analysed by LC-MS-MS.

[2] = peripheral administration; cited from earlier work
[3] = Effect of preparation method and pH on stability of LDA-HCl/CD formulations; type: physicochemical; details: 5 days at room temperature (Table 7)
Experimental: LDA-HCl/CD formulations were prepared by the following methods, and were then tested for stability. Method 1. Carbidopa (CD, powder) [Teva Pharmaceuticals Ltd., Israel] was added to LDA-HCl solution. […] Precipitation occurred at room temperature. Method 2. Liquid CD formulations were prepared by weighting CD [Teva Pharmaceuticals Ltd., Israel] in a suitable container with different L-arginine [Merck] weights to obtain a final concentration of 0.8% CD (wet form, 0.75% dry form) in different molar ratios to arginine (Table 6). CD formulations were prepared as described in the International Publication No. WO 2010/134074. LDA-HCl (powder) was added to CD solutions to attain the final desired concentration of LDA-HCl/CD formulations. Method 3. CD solutions (40 mg/ml, prepared as described in the International Publication No. WO 2010/134074) were mixed with LDA-HCl solutions to attain the final desired concentration of LDA/CD formulations. The LDA-HCl formulations were prepared by dissolving 200, 160 or 120 mg/ml of LDA-HCl in 40 mM citric buffer. The chemical stability of 7 LDA-HCl/CD formulations was evaluated by HPLC analysis at t0 and after 5 days at room temperature. The recovery after 5 days at room temperature was calculated compared to t0 (Table 7).

[4] = Plasma levels of LDA and LD after oral LDA-HCl in mice; type: in vivo
Experimental: as §1, §2, §3

[5] = Plasma pharmacokinetics of LDA and LD after oral LDA-HCl with and without CD in rats; type: in vivo; details: oral LDA-HCl 25 mg/kg
Experimental: The purpose of this experiment was to determine the plasma pharmacokinetics of LDA and LD following oral administration of LD or LDA-HCl with and without CD in Wistar rats.
Wistar rats underwent fasting overnight prior to the dosing and received food only 2 hour post-dosing. The method used to dose orally was via oesophagotubage. Solutions were prepared as described above.

[6] = Stability of LDA 200 mg/ml solution with HCl; type: physicochemical
Experimental: The effect of HCl, representing an inorganic acid, on the stability of LDA solution was evaluated. HCl solution containing 0.3% Tween 80 was added to LDA to obtain a solution having a final LDA concentration of 200 mg/ml and a molar ratio of about 1:1 LDA:HCl. The physical stability of the solution and the chemical stability of LDA were evaluated (Table 13). As shown, LDA (200 mg/ml) is stable for at least 9 days in solution containing HCl at a molar ratio of about 1:1.

[7] = Dissolution and stability of LDA in organic acid solutions; type: physicochemical; details: for Chemical stability after 3 days at RT: in % (unit assumed)
Experimental: The effect of organic acids on the stability of LDA solution was evaluated. Formulations were prepared by adding small aliquots of organic acid solutions, 100-300 μl, to ˜240 mg LDA until full dissolution while pH was monitored. The end point of acid addition was decided by appearance and/or by pH and/or total volume. LDA concentration was determined by HPLC.

[8] = Physical stability of LDA-HCl solutions with or without added CD-Arg formulation; type: physicochemical; details: 0.75% CD; CD:Arg 1:1.25; LDA:HCl 1:0.92; pH 5.69; time points not separated
Experimental: HCl solutions at 3 different concentrations containing 0.3% Tween 80 were added to LDA to obtain solutions having a final LDA concentration of 200 mg/ml and a molar ratio of 1:0.89, 1:0.92 and 1:0.95 LDA:HCl. CD-Arg formulation (CD:Arg molar ratio 1:1.25) was prepared in Tween 80 0.3% and was added gradually under stirring to 4 volumes of each of the 3 LDA-HCl solutions. The physical stability of the solutions was evaluated (Table 15). As shown, the addition of CD to LDA-HCl solutions yielded stable solutions if added to LDA-HCl solutions having a pH>3.8, preferably pH >4.6.

[9] = Solubility of LDA in water in the absence of an acid; type: physicochemical; details: water with and without 0.3% Tween-80, absence of an acid; data not shown
From the text: LDA in water with and without 0.3% Tween-80, at concentrations greater than 2.5% (data not shown), is not soluble in the absence of an acid.

In the case of N[C@@H](Cc1ccc(O)c(O)c1)C(=O)O [LD, L-3,4-dihydroxyphenylalanine, reference compound], the LD plasma level ([1]; IV LDA-HCl 20 mg/kg, 3 h thereafter) is given as “below limit of quantification” and the “share of administered levodopa that enters the brain unaltered” value [2] is given as 1-3%.

With NC(=O)C(N)Cc1ccc(O)c(O)c1 (stereo not drawn) [LDA, 2-amino-3-(3,4-dihydroxyphenyl)propanamide] the “chemical stability in LDA-HCl/CD formulations” value [3] was “pH-dependent”, the LDA plasma level ([1]; IV LDA-HCl 20 mg/kg, 1 h thereafter) was “below limit of quantification” and the “metabolism of LDA to LD” value ([1]; IV administration of LDA-HCl 20 mg/kg) was “rapidly metabolized to LD”. The “half-life of LDA compared with LD” value ([1]; IV and oral administration of LDA-HCl) was “shorter than that of LD”, the bioavailability ([4]; administered orally) was “low” and the “metabolism of LDA to LD” value ([4]; oral administration of LDA-HCl 20 mg/kg) was “rapidly metabolized to LD”. The “metabolism of LDA to LD” value [5] was “rapidly metabolized to LD”, the “time stable in solution” value ([6]; HCl at a molar ratio of about 1:1) was “at least 9 days” and the “Chemical stability of LDA 9 days” value ([6]; LDA:HCl molar ratio 1:0.94, pH 5.81, 0.3% Tween 80, in % (unit assumed)) was 100.1. For the same compound, the “Chemical stability after 3 days at RT” value ([7]; Acetic acid, LDA:acid 1:1.2, pH 5.0) was 98.4, the “Chemical stability after 3 days at RT” value ([7]; Citric acid, LDA:acid 1:08, pH 2.8) was 99.3 and the “time physically and chemically stable at RT” value ([7]; LDA dissolved in organic acid solutions) was “at least 3 days”. The “Chemical stability after 3 days at RT” value ([7]; Succinic acid, LDA:acid 1:0.5, pH 5.7) was 99.1, the “Chemical stability after 3 days at RT” value ([7]; Tartaric acid, LDA:acid 1:0.6, pH 3.8) was 100.5 and the “LDA” value ([7]; dissolved with Acetic acid, pH 5.0) was 199 mg/mL. For the same compound, the “LDA” value ([7]; dissolved with Citric acid, pH 2.8) was 236 mg/mL, the “LDA” value ([7]; dissolved with Citric acid, pH 5.6) was 175 mg/mL and the “LDA” value ([7]; dissolved with Glutamic acid, pH 5.8) was 128 mg/mL. The “LDA” value ([7]; dissolved with Succinic acid, pH 5.7) was 194 mg/mL, the “LDA” value ([7]; dissolved with Tartaric acid, pH 3.8) was 334 mg/mL and the Precipitations [8] was “Slight”. For the same compound, the “soluble concentration in water” value [9] was at most 2.5%.

— patent publication US20170296491A1, “PHARMACEUTICAL COMPOSITIONS COMPRISING LEVODOPA AMIDE AND USES THEREOF” (priority 2015, published 2017)
